Test results published in patent publication US20180000836A1, “Topical Treatment for Psoriasis” (priority 2016, published 2018).

Assay: Topical application of the preparation to affected skin areas of plaque psoriasis patients
Format: in vivo, human
Settings: twice daily, six to twelve weeks
Excerpt: The topical application using the preparation herein for treatment of psoriasis according to the present invention, to accelerate healing, merely requires a once to twice daily application of the formed preparation to the affected areas for a period of six to twelve weeks. Generally, no special precautions are required other than the general precautions which accompany the topical application of topical steroids to the skin. Evaluation of the effectiveness of the preparation herein, is by simple examination of the patient and reduction of rash and other skin symptoms, and by changes in the amounts of itching present.
Topical application of the preparation for plaque psoriasis treatment herein to affected skin areas, on a twice, daily basis, generally produces beneficial effects on plaque psoriasis when applied over a period of time between six to twelve weeks. […] The clearing noted lasting for a prolonged period after treatment. […]
In a regimen for treatment of plaque psoriasis patients, the preparation herein is mixed and provided to the patient for topical application twice daily for a period of six to twelve weeks, depending on the individual patient results which may be evaluated after each four to six week period by an examination of the areas of body of the patient, and the reduction or total clearing of rash and other skin symptoms in those area. […]

CCC(=O)O[C@]1(C(=O)CCl)[C@@H](C)C[C@H]2[C@@H]3CCC4=CC(=O)C=C[C@]4(C)[C@@]3(F)[C@@H](O)C[C@@]21C [clobetasol propionate]
outcome of topical treatment of plaque psoriasis (clearing of affected areas), in words: reduction or elimination of the plaque psoriasis
